Patent publication US9115151B2, “Substituted 2,10-dihydro-9-oxa-1,2,4A-triazaphenanthren-3-ones and uses thereof” (AbbVie Inc., priority 2012, dated 2015)
Where a name gives a salt, the structure may show the parent alone.

Assays:
PKCα = target: T1, PKCα (Homo sapiens, UniProt P17252); assay: In vitro enzyme assay (time-resolved fluorescence kinase assay), PKCα, 100 μM ATP; format: biochemical; details: 100 μM ATP; read-out: PKCα enzyme IC50
T1 construct: His6; purchased Millipore; host or cells: baculovirus in Sf21 cells
Procedure, shortened: (§1)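 Read-out was time-resolved fluorescence, corrected for a minus-enzyme blank and converted to percent activity relative to enzyme without drug. They were stopped with EDTA.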

[1] = system: CD3/CD28 induced IL-2 in human T-Blasts; assay: T-Blasts CD3/CD28 induced IL-2 assay; format: cell-based; details: read-out: CD3/CD28-stimulated IL2 in T-blasts EC50
Procedure, shortened: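 PHA-generated human T-blasts, 2×10^5 per well, preincubated 30 min with 8-point 1/3 compound dilutions in duplicate, then stimulated with anti-CD3+anti-CD28 (5 μg/mL final) for 24 h at 37° C. Supernatant IL-2 measured; MTT toxicity run on remaining cells.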

PKCθ = target: T2, PKCθ (Homo sapiens, UniProt Q04759); assay: In vitro enzyme assay (time-resolved fluorescence kinase assay), PKCθ, 100 μM ATP; format: biochemical
T2 construct: His6; purchased Millipore; host or cells: baculovirus in Sf21 cells
Procedure, shortened: as §1

T2 sequence (Q04759 whole entry): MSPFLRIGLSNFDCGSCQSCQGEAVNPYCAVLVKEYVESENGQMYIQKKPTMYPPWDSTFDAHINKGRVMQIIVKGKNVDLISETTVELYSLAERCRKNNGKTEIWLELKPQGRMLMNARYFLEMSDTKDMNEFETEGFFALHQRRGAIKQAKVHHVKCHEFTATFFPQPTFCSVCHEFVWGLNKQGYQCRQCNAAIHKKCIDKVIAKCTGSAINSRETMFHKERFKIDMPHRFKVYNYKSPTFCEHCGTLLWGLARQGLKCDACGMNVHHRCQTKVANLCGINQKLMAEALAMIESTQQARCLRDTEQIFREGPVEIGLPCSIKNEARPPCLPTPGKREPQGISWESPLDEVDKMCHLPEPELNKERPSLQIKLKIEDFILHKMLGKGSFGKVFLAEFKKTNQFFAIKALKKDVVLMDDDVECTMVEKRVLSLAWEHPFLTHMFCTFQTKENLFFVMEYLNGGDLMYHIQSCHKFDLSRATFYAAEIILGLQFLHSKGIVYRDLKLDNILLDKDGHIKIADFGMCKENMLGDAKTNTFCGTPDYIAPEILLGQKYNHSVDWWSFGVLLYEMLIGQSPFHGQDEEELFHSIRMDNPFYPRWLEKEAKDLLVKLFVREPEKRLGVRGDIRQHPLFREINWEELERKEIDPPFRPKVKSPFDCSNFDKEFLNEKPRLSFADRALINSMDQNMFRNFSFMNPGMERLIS

Row | SMILES | IC50 (PKCα) | EC50 [1] | IC50 (PKCθ)
1 | CC1C(=O)NN=C2COc3ccc(OC4(C)CNC4)cc3N21 (stereo not drawn) [Example 69, 4-Methyl-6-(3-methyl-azetidin-3-yloxy)-2,10-dihydro-9-oxa-1,2,4a-triaza-phenanthren-3-one trifluoroacetic acid] | 1 to 10 µM | < 0.25 µM | < 0.25 µM
2 | CC(C)c1cc2c(cc1C1CCNCC1)N1C(=NNC(=O)C1C)CO2 (stereo not drawn) [Example 76, 7-Isopropyl-4-methyl-6-piperidin-4-yl-2,10-dihydro-9-oxa-1,2,4a-triaza-phenanthren-3-one trifluoroacetic acid] | 1 to 10 µM | 0.25 to 1 µM | 0.25 to 1 µM
3 | CC1C(=O)NN=C2COc3cc(C4CC4)c(C4CCNCC4)cc3N21 (stereo not drawn) [Example 77, 7-Cyclopropyl-4-methyl-6-piperidin-4-yl-2,10-dihydro-9-oxa-1,2,4a-triaza-phenanthren-3-one trifluoroacetic acid] | 1 to 10 µM | 0.25 to 1 µM | < 0.25 µM
4 | CC1C(=O)NN=C2COc3ccc(CC4CNC4)cc3N21 (stereo not drawn) [Example 78, 6-Azetidin-3-ylmethyl-4-methyl-2,10-dihydro-9-oxa-1,2,4a-triaza-phenanthren-3-one trifluoroacetic acid] | 1 to 10 µM | < 0.25 µM | < 0.25 µM
5 | CC1C(=O)NN=C2COc3cc(-c4ccccc4)c(NC4(C)CNC4)cc3N21 (stereo not drawn) [Example 79, 4-Methyl-6-(3-methyl-azetidin-3-ylamino)-7-phenyl-2,10-dihydro-9-oxa-1,2,4a-triaza-phenanthren-3-one trifluoroacetic acid] | 1 to 10 µM | 1 to 10 µM | 0.25 to 1 µM
6 | CC1C(=O)NN=C2COc3cc(F)c(OC4(C)CNC4)cc3N21 (stereo not drawn) [Example 80, 7-Fluoro-4-methyl-6-(3-methyl-azetidin-3-yloxy)-2,10-dihydro-9-oxa-1,2,4a-triaza-phenanthren-3-one trifluoroacetic acid] | 1 to 10 µM | < 0.25 µM | < 0.25 µM
7 | Cc1cc2c(cc1OC1(C)CNC1)N1C(=NNC(=O)C1C)CO2 (stereo not drawn) [Example 83, 4,7-Dimethyl-6-(3-methyl-azetidin-3-yloxy)-2,10-dihydro-9-oxa-1,2,4a-triaza-phenanthren-3-one trifluoroacetic acid] | 1 to 10 µM | < 0.25 µM | < 0.25 µM
8 | CC1C(=O)NN=C2COc3cc(F)c(NC4(C)CNC4)cc3N21 (stereo not drawn) [Example 84, 8-Fluoro-1-methyl-9-((3-methylazetidin-3-yl)amino)-3,5-dihydrobenzo[5,6][1,4]oxazino[3,4-c][1,2,4]triazin-2(1H)-one trifluoroacetic acid] | 1 to 10 µM | < 0.25 µM | < 0.25 µM
9 | CC1C(=O)NN=C2COc3cc(Br)c(NC4CNC4)cc3N21 (stereo not drawn) [Example 85, 6-(Azetidin-3-ylamino)-7-bromo-4-methyl-2,10-dihydro-9-oxa-1,2,4a-triaza-phenanthren-3-one trifluoroacetic acid] | 1 to 10 µM | 0.25 to 1 µM | < 0.25 µM
10 | Cc1ccccc1-c1cc2c(cc1N(C)C1(C)CN(C)C1)N1C(=NNC(=O)C1C)CO2 (stereo not drawn) [Example 88] | < 0.25 µM | < 0.25 µM | < 0.25 µM
11 | CC1C(=O)NN=C2COc3cc(-c4ccccc4)c(N(C)C4(C)CNC4)cc3N21 (stereo not drawn) [Example 90] | < 0.25 µM | < 0.25 µM | < 0.25 µM
12 | CC(C)N1CC(C)(N(C)c2cc3c(cc2-c2ccccc2)OCC2=NNC(=O)C(C)N23)C1 (stereo not drawn) [Example 91] | 0.25 to 1 µM | < 0.25 µM | < 0.25 µM
13 | CC1C(=O)NN=C2COc3cc(-c4ccccc4)c(N(C)C4(C)CN(Cc5ccccc5)C4)cc3N21 (stereo not drawn) [Example 92] | 0.25 to 1 µM | < 0.25 µM | < 0.25 µM
14 | CC1C(=O)NN=C2COc3cc(-c4ccccc4)c(N(C)C4(C)CN(C5CCOCC5)C4)cc3N21 (stereo not drawn) [Example 94] | 0.25 to 1 µM | < 0.25 µM | < 0.25 µM
15 | CC1C(=O)NN=C2CSc3ccc(NC4CNC4)cc3N21 (stereo not drawn) [Example 97, 6-(Azetidin-3-ylamino)-4-methyl-2,10-dihydro-9-thia-1,2,4a-triaza-phenanthren-3-one hydrochloric acid salt] | 1 to 10 µM | < 0.25 µM | < 0.25 µM
16 | CC1C(=O)NN=C2COc3cc(C(F)(F)F)c(CC4CNC4)cc3N21 (stereo not drawn) [Example 99, 6-Azetidin-3-ylmethyl-4-methyl-7-trifluoromethyl-2,10-dihydro-9-oxa-1,2,4a-triaza-phenanthren-3-one trifluoroacetic acid] | 1 to 10 µM | 0.25 to 1 µM | < 0.25 µM
17 | CC1C(=O)NN=C2COc3cc4ccn(C5CNC5)c4cc3N21 (stereo not drawn) [Example 103, 10-(Azetidin-3-yl)-1-methyl-5,10-dihydro-1H-[1,2,4]triazino[4′,3′:4,5][1,4]oxazino[2,3-f]indol-2(3H)-one trifluoroacetic acid] | 1 to 10 µM | 0.25 to 1 µM | < 0.25 µM
18 | CC1C(=O)NN=C2COc3cc(Oc4ccccc4)c(NC4CNC4)cc3N21 (stereo not drawn) [Example 106, 6-(Azetidin-3-ylamino)-4-methyl-7-phenoxy-2,10-dihydro-9-oxa-1,2,4a-triaza-phenanthren-3-one trifluoroacetic acid] | 1 to 10 µM | 0.25 to 1 µM | < 0.25 µM
19 | CC1C(=O)NN=C2CCc3ccc(NC4CNC4)cc3N21 (stereo not drawn) [Example 108, 9-(Azetidin-3-ylamino)-1-methyl-5,6-dihydro-1H-[1,2,4]triazino[4,3-a]quinolin-2(3H)-one hydrochloric acid] | 0.25 to 1 µM | < 0.25 µM | < 0.25 µM
20 | CC1C(=O)NN=C2COc3cc(C(C)C(F)(F)F)c(NC4CNC4)cc3N21 (stereo not drawn) [Example 112, 9-(Azetidin-3-ylamino)-1-methyl-8-(1,1,1-trifluoropropan-2-yl)-3,5-dihydrobenzo[5,6][1,4]oxazino[3,4-c][1,2,4]triazin-2(1H)-one trifluoroacetic acid salt] | 1 to 10 µM | 1 to 10 µM | 1 to 10 µM
21 | CC1C(=O)NN=C2COc3ccc(NC4(C(C)C)CNC4)cc3N21 (stereo not drawn) [Example 113, 9-((3-Isopropylazetidin-3-yl)amino)-1-methyl-3,5-dihydrobenzo[5,6][1,4]oxazino[3,4-c][1,2,4]triazin-2(1H)-one trifluoroacetic acid] | 1 to 10 µM | < 0.25 µM | < 0.25 µM

Results, then the compound that gave them:

Row | IC50 (PKCα) | EC50 [1] | IC50 (PKCθ) | SMILES
22 | 1 to 10 µM | < 0.25 µM | < 0.25 µM | Cc1cc2c(cc1OC1CNC1)N1C(=NNC(=O)C1C)CO2 (stereo not drawn) [Example 67]
23 | 1 to 10 µM | 0.25 to 1 µM | 0.25 to 1 µM | CC(C)c1cc2c(cc1OC1CNC1)N1C(=NNC(=O)C1C)CO2 (stereo not drawn) [Example 68, 6-(Azetidin-3-yloxy)-7-isopropyl-4-methyl-2,10-dihydro-9-oxa-1,2,4a-triaza-phenanthren-3-one trifluoroacetic acid]
24 | 1 to 10 µM | < 0.25 µM | < 0.25 µM | CC1C(=O)NN=C2COc3ccc(C4CCNCC4)cc3N21 (stereo not drawn) [Example 71, 4-Methyl-6-piperidin-4-yl-2,10-dihydro-9-oxa-1,2,4a-triaza-phenanthren-3-one trifluoroacetic acid]
25 | 1 to 10 µM | 1 to 10 µM | 0.25 to 1 µM | CC1C(=O)NN=C2COc3cc(F)c(C4CCNCC4)cc3N21 (stereo not drawn) [Example 72]
26 | 1 to 10 µM | 1 to 10 µM | 0.25 to 1 µM | CC1CNCCC1c1ccc2c(c1)N1C(=NNC(=O)C1C)CO2 (stereo not drawn) [Example 73]
27 | 1 to 10 µM | 0.25 to 1 µM | < 0.25 µM | CC1C(=O)NN=C2COc3ccc(C4CCNCC4(C)C)cc3N21 (stereo not drawn) [Example 74]
28 | 1 to 10 µM | 0.25 to 1 µM | < 0.25 µM | Cc1cc2c(cc1C1CCNCC1)N1C(=NNC(=O)C1C)CO2 (stereo not drawn) [Example 75, 4,7-Dimethyl-6-piperidin-4-yl-2,10-dihydro-9-oxa-1,2,4a-triaza-phenanthren-3-one trifluoroacetic acid]
29 | 0.25 to 1 µM | < 0.25 µM | < 0.25 µM | CC(C)c1cc2c(cc1OC1(C)CNC1)N1C(=NNC(=O)C1C)CO2 (stereo not drawn) [Example 82, 7-Isopropyl-4-methyl-6-(3-methyl-azetidin-3-yloxy)-2,10-dihydro-9-oxa-1,2,4a-triaza-phenanthren-3-one trifluoroacetic acid]
30 | 1 to 10 µM | < 0.25 µM | < 0.25 µM | CC1C(=O)NN=C2COc3ccc(C4CCNC(Cc5ccccc5)C4)cc3N21 (stereo not drawn) [Example 86, 9-(2-Benzylpiperidin-4-yl)-1-methyl-3,5-dihydrobenzo[5,6][1,4]oxazino[3,4-c][1,2,4]triazin-2(1H)-one trifluoroacetic acid]
31 | 1 to 10 µM | 1 to 10 µM | < 0.25 µM | CCN1CC(C)(N(C)c2cc3c(cc2-c2ccccc2)OCC2=NNC(=O)C(C)N23)C1 (stereo not drawn) [Example 93]
32 | 0.25 to 1 µM | < 0.25 µM | < 0.25 µM | CC1C(=O)NN=C2COc3cc(-c4ccccc4)c(N(C)C4(C)CN(CC5CCOCC5)C4)cc3N21 (stereo not drawn) [Example 95]
33 | < 0.25 µM | < 0.25 µM | < 0.25 µM | CC1C(=O)NN=C2COc3cc(C(F)(F)F)c(OC4(C)CNC4)cc3N21 (stereo not drawn) [Example 107, 4-Methyl-6-(3-methyl-azetidin-3-yloxy)-7-trifluoromethyl-2,10-dihydro-9-oxa-1,2,4a-triaza-phenanthren-3-one trifluoroacetic acid]
34 | 1 to 10 µM | 0.25 to 1 µM | 0.25 to 1 µM | C[C@H](c1ccc2c(c1)N1C(=NNC(=O)[C@H]1C)CO2)C1CNC1 [Example 110]
35 | 1 to 10 µM | 0.25 to 1 µM | < 0.25 µM | C[C@@H]1C(=O)NN=C2COc3ccc([C@H](C)C4CNC4)cc3N21 [Example 111]
